In patent US10208033B2, “β-carboline, dihydro-β-carboline and tetrahydro-β-carboline alkaloid derivatives and preparation methods same and use in aspects of preventing and treating plant viruses, fungicides and insecticides” (NANKAI UNIVERSITY, priority 2013, dated 2019):

Experiments:
[1] = test system: armyworms; type: in vivo; settings: concentration 600 mg/kg
[2] = test system: Rhizoctonia solani; assay: Fungicidal (bactericidal) activity in vitro, PDA colony diameter; type: cell-based; settings: 50 mg/kg
[3] = test system: mosquito larvae; assay: whole plant or invertebrate; settings: for activity against culex pipiens larvae (in words): at 5 mg/kg
In short: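 Compound dissolved in acetone (or other solvent) to a 1000 ppm stock and diluted in water to 5 ppm. Ten Culex pipiens pallens larvae at the start of the fourth instar, laboratory-reared, added per beaker; solvent-only aqueous control.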

[4] = test system: Colletotrichum orbiculare; assay: Fungicidal (bactericidal) activity in vitro, PDA colony diameter; type: cell-based; settings: 50 mg/kg
[5] = test system: Sclerotinia scleotiorum; assay: as above; type: cell-based; settings: 50 mg/kg
[6] = test system: cotton bollworms; assay: whole plant or invertebrate
Procedure: Experimental method of cotton bollworms: feed and drug mixing method: measure 3 mL of prepared solution and add it to about 27 g of newly prepared feed, thereby obtaining needed concentration through dilution by 10 times.

[7] = test system: tobacco mosaic virus (TMV); assay: Anti-TMV in vitro effect (half-leaf soaking); type: cell-based, tobacco mosaic virus (host Nicotiana tabacum L.cv.Xanthi NN)
[8] = test system: Cercospora arachidicola; assay: Fungicidal (bactericidal) activity in vitro, PDA colony diameter; type: cell-based; settings: 50 mg/kg
[9] = test system: Fusarium fujikuroi; assay: as above; type: cell-based; settings: 50 mg/kg
[10] = test system: Botrytis cinerea; assay: as above; type: cell-based; settings: 50 mg/kg
[11] = test system: Bipolaria maydis; assay: organism not typed; type: cell-based
[12] = test system: tobacco mosaic virus (TMV); assay: Anti-TMV in vivo inactivation; set-up: species or system tobacco mosaic virus (host Nicotiana tabacum L.cv.Xanthi NN)
[13] = test system: tobacco mosaic virus (TMV); assay: Anti-TMV in vivo protective effect; set-up: species or system tobacco mosaic virus (host Nicotiana tabacum L.cv.Xanthi NN)
[14] = test system: corn borers; settings: concentration 600 mg/kg
[15] = test system: Macrophoma kawatsukai; assay: Fungicidal (bactericidal) activity in vitro, PDA colony diameter; type: cell-based; settings: 50 mg/kg
[16] = test system: armyworms, cotton bollworms and corn borers; assay: Insecticidal activity, overall statements on Table 3; type: in vivo; settings: Table 3, 600 mg/kg
[17] = test system: Rhizoctonia cereali; assay: Fungicidal (bactericidal) activity in vitro, PDA colony diameter; type: cell-based; settings: 50 mg/kg
[18] = test system: potato late blight; assay: microbe, parasite or virus in culture; type: cell-based
[19] = test system: tobacco mosaic virus (TMV); assay: Anti-TMV in vivo therapeutic effect; set-up: species or system tobacco mosaic virus (host Nicotiana tabacum L.cv.Xanthi NN)
[20] = test system: Alternaria solani; assay: Fungicidal (bactericidal) activity in vitro, PDA colony diameter; type: cell-based; settings: 50 mg/kg
[21] = test system: cucumber fusarium wilt; assay: as above; type: cell-based; settings: 50 mg/kg
[22] = test system: Fusarium graminearumt; assay: microbe, parasite or virus in culture; type: cell-based
[23] = test system: Phytophthora capsici; assay: Fungicidal (bactericidal) activity in vitro, PDA colony diameter; type: cell-based; settings: 50 mg/kg
[24] = test system: corn borers; assay: whole plant or invertebrate; settings: read-out: Corn borer Mortality (%)
[25] = Culex pipiens, 24 h, read-out: Mosquito larvae Mortality (%)

Structure (SMILES): Cc1nccc2c1[nH]c1cc(OC(=O)C(C)(C)C)ccc12 [Ia-8, Tert-valerate (1-methylpyridino [3,4-b]indol-7)-ester]
- Armyworm Mortality (%) [1]: 70%
- Bactericidal activity (%) Rhizoctonia solani [2]: 42.9%
- activity against culex pipiens larvae (in words) [3]: still show high activity
- Mosquito larvae Mortality (%) ([3]; concentration 5 mg/kg, 24 h): 60%
- Mosquito larvae Mortality (%) ([3]; concentration 10 mg/kg, 24 h): 100%
- Bactericidal activity (%) Colletotrichum orbiculare [4]: 71.4%
- Bactericidal activity (%) Sclerotinia scleotiorum [5]: 80.0%
- Cotton bollworm Mortality (%) ([6]; concentration 600 mg/kg): 15%
- Relative inhibition rate (%) In vitro activity ([7]; treatment dose 100 μg/mL): 0%
- Relative inhibition rate (%) In vitro activity ([7]; treatment dose 500 μg/mL): 0%
- Bactericidal activity (%) Cercospora arachidicola [8]: 71.4%
- Bactericidal activity (%) Fusarium fujikuroi [9]: 50.0%
- Bactericidal activity (%) Botrytis cinerea [10]: 54.6%
- Bactericidal activity (%) Bipolaria maydis ([11]; 50 mg/kg): 79.0%
- Relative inhibition rate (%) In vivo inactivation ([12]; treatment dose 100 μg/mL): 0%
- Relative inhibition rate (%) In vivo inactivation ([12]; treatment dose 500 μg/mL): 15.3%
- Relative inhibition rate (%) In vivo protection ([13]; treatment dose 100 μg/mL): 0%
- Relative inhibition rate (%) In vivo protection ([13]; treatment dose 500 μg/mL): 14.4%
- Corn borer Mortality (%) [14]: 65%
- Bactericidal activity (%) Macrophoma kawatsukai [15]: 76.5%
- activity against armyworms, cotton bollworms and corn borers (in words) [16]: broad-spectrum activity
- Bactericidal activity (%) Rhizoctonia cereali [17]: 90.6%
- Bactericidal activity (%) potato late blight ([18]; 50 mg/kg): 50.0%
- Relative inhibition rate (%) In vivo therapy ([19]; treatment dose 100 μg/mL): 0%
- Relative inhibition rate (%) In vivo therapy ([19]; treatment dose 500 μg/mL): 0%
- Bactericidal activity (%) Alternaria solani [20]: 66.7%
- Bactericidal activity (%) Cucumber fusarium wilt [21]: 52.4%
- Bactericidal activity (%) Fusarium graminearumt ([22]; 50 mg/kg): 78.6%
- Bactericidal activity (%) Phytophthora capsici [23]: 93.9%

Structure (SMILES): CCCCNC(=O)[C@@H]1Cc2c([nH]c3ccccc23)[C@H](C)N1 [Ib-16, (1S, 3S)—N-butyl-1-methyl-2,3,4,9-tetrahydro-pyridino [3,4-b] indol-3-formamide]
- Armyworm Mortality (%) [1]: 65%
- inhibition of growth at 50 mg/kg ([2]; Rhizoctonia solani, 96 h): 46.1%
- mortality at 5 mg/kg [3, 25]: 60%
- mortality at 10 mg/kg [3, 25]: 100%
- activity against culex pipiens larvae (in words) [3]: still show high activity
- inhibition of growth at 50 mg/kg ([4]; Colletotrichum orbiculare, 96 h): 28.6%
- inhibition of growth at 50 mg/kg ([5]; Sclerotinia, 96 h): 0%
- mortality at 600 mg/kg ([6]; Helicoverpa armigera, in Gossypium hirsutum, read-out: Cotton bollworm Mortality (%)): 50%
- inhibition at 100 µg/mL ([7]; Tobacco mosaic virus, treatment dose 100 μg/mL, read-out: Relative inhibition rate (%) In vitro activity): 0%
- inhibition at 500 µg/mL ([7]; Tobacco mosaic virus, treatment dose 500 μg/mL, read-out: Relative inhibition rate (%) In vitro activity): 38.4%
- inhibition of growth at 50 mg/kg ([8]; Mycosphaerella arachidis, 96 h): 84.6%
- inhibition of growth at 50 mg/kg ([9]; Fusarium fujikuroi, 96 h): 14.3%
- inhibition of growth at 50 mg/kg ([10]; Botrytis cinerea, 96 h): 18.2%
- inhibition at 50 mg/kg ([11]; read-out: Bactericidal activity (%) Bipolaria maydis): 18.2%
- inhibition at 100 µg/mL ([12]; Tobacco mosaic virus, treatment dose 100 μg/mL, read-out: Relative inhibition rate (%) In vivo inactivation): 13.5%
- inhibition at 500 µg/mL ([12]; Tobacco mosaic virus, treatment dose 500 μg/mL, read-out: Relative inhibition rate (%) In vivo inactivation): 44%
- inhibition at 100 µg/mL ([13]; Tobacco mosaic virus, treatment dose 100 μg/mL, read-out: Relative inhibition rate (%) In vivo protection): 15.8%
- inhibition at 500 µg/mL ([13]; Tobacco mosaic virus, treatment dose 500 μg/mL, read-out: Relative inhibition rate (%) In vivo protection): 42.1%
- inhibition at 50 mg/kg [15]: 33.3%
- activity against armyworms, cotton bollworms and corn borers (in words) [16]: broad-spectrum activity
- inhibition of growth at 50 mg/kg ([17]; Rhizoctonia, 96 h): 57.9%
- inhibition of growth at 50 mg/kg ([18]; Phytophthora infestans, 96 h, read-out: Bactericidal activity (%) potato late blight): 22.7%
- inhibition at 100 µg/mL ([19]; Tobacco mosaic virus, treatment dose 100 μg/mL, read-out: Relative inhibition rate (%) In vivo therapy): 21.1%
- inhibition at 500 µg/mL ([19]; Tobacco mosaic virus, treatment dose 500 μg/mL, read-out: Relative inhibition rate (%) In vivo therapy): 44.9%
- inhibition of growth at 50 mg/kg ([20]; Alternaria solani, 96 h): 21.1%
- mortality at 600 mg/kg [24]: 50%
- inhibition of growth at 50 mg/kg ([21]; Fusarium, 96 h): 23.1%
- inhibition of growth at 50 mg/kg ([22]; Fusarium, 96 h, read-out: Bactericidal activity (%) Fusarium graminearumt): 14.3%
- inhibition of growth at 50 mg/kg ([23]; Phytophthora capsici, 96 h): 18.8%
